Assay results: US9351983B2, “Use of glycerophosphoinositols for the treatment of septic shock” (CONSIGLIO NAZIONALE DELLE RICERCHE, priority 2012, dated 2016)

Tests used:
Format in all cases: cell-based, human
[1] = tested on: LPS-stimulated nuclear translocation of NF-κB; assay: Electromobility shift assay of nuclear NF-κB in LPS-stimulated monocytes; settings: 50 μM, 0.1 μg/ml LPS for 1 h
Protocol: FIG. 7—Glycerophosphoinositols inhibit LPS-stimulated nuclear translocation of NF-κB. Human monocytes purified from the peripheral blood of healthy donors were incubated at 37° C. for 20 min without (−) or with (+) two different concentrations (300 μM and 50 μM) of GroPIns or GroPIns4P, and then for further 1 h in the absence (−) and presence (+) of 0.1 μg/ml LPS from E. coli. At the end of the incubation, the cells were lysed and the nuclear extracts were incubated with radiolabelled oligonucleotide probes that contained the NF-κB binding site. Protein-DNA complexes were separated using 6% non-denaturating acrylamide gels and visualised by autoradiography. The results shown are representative of 4 different experiments performed with cells from different donors.
Cells were harvested by centrifugation at 300×g for 5 min and lysed in ice-cold cell lysis buffer using an Ultraturrax homogeniser (Janke & Kunke, Germany, 4 strokes of 20 s each, at medium speed). The cell nuclei were pelleted by centrifugation (800×g, 5 min, at 4° C.) and recovered. […] After centrifugation (4000×g, for 10 min, at 4° C.), the supernatant was recovered and the protein concentrations in the nuclear extracts were determined using a commercially available protein assay kit (Bio-Rad Laboratories, UK). […]

[2] = tested on: LPS-mediated gene transcription of COX-2; assay: Real-time RT-PCR of COX-2 mRNA in LPS-stimulated monocytes; settings: 300 μM, 0.1 μg/ml LPS for 1.5 h or 24 h
Protocol: FIG. 4—The glycerophosphoinositols inhibit LPS-mediated gene transcription of TNFα, IL-1β and COX-2. Human monocytes were purified from peripheral blood and incubated at 37° C. for 20 min without or with 300 μM GroPIns or GroPIns4P, and for an additional 1.5 h or 24 h in the absence and presence of 0.1 μg/ml LPS from E. coli. At each time point, RNA was extracted and converted to cDNA for real-time PCR analysis of TNFα, IL-1β and COX-2. Each sample was measured in triplicate and the data were calculated using the delta-delta method (2-DDCT). Transcription of the house-keeping gene GAPDH was used to normalise the data. Measurements of mRNA levels were expressed as fold-increase over the respective control (unstimulated) cells, and are means (±SD) of triplicates from one representative experiment of 4 experiments performed with cells from different donors. Asterisks indicate statistically significant differences (*p<0.0485; **p<0.0092).
One μg total RNA (extracted through thiocyanate/caesium chloride method) was converted to cDNA using Moloney murine leukaemia virus reverse transcriptase (Applied Biosystems, Italy). […] Each sample was measured in triplicate and the data were analysed with the SDS 2.0 software (Applied Biosystems, Italy) by the delta-delta method (2-DDCT) for comparing relative expression results. […]

[3] = tested on: p38; assay: Western blotting of phosphorylated p38 in LPS-stimulated monocytes; settings: 300 μM, 0.1 μg/ml LPS for 1 h
Protocol: Monocytes from healthy donors were incubated at 37° C. for 20 min without or with 300 μM GroPIns or GroPIns4P, and for an additional 1 h in the absence and presence of 0.1 μg/ml LPS from E. coli. Resentative Western blots are shown, as resolved using 10% SDS-PAGE, showing phosphorylated (p-) and total levels of p38 and ERK1/2. All of the blots were representative of at least three independent experiments.
Protein extracts were analysed by Western blotting by the following procedures. The nitrocellulose filters containing the proteins of interest were incubated in the blocking solution for Western blotting plus 3% bovine serum albumin (BSA) or 5% milk powder (Fluka, Switzerland) for 1 h at room temperature, and then with the primary antibody diluted to its working concentration (see Table 2) in the blocking solution for Western blotting (plus BSA or milk powder). After a 2-4 h incubation at room temperature, or an overnight (O/N) incubation at 4° C., the antibody was removed and the strips were washed twice in Tween®/Tris-buffered salt solution (TTBS), for 15 min each. […] After washing the strips were incubated with the enhanced luminescence (ECL) reagents (Amersham Pharmacia Biotech, NJ, USA), according to the manufacturer instructions, and protein signals were detect by autoradiography using Kodak film.

Compound | reduction of NF-κB nuclear translocation [1] | effect on LPS-induced COX-2 mRNA expression [2] | phosphorylation level of p38 [3]
O=P(O)(O)OC1[C@@H](O)[C@H](O)C(OP(=O)(O)OCC(O)CO)[C@@H](O)[C@H]1O (stereo partly drawn) [GroPIns4P, glycerophosphoinositol 4-phosphate] | not at 50 μM | inhibited the effects of LPS on expression of all of the genes analysed | did not affect the phosphorylation levels
O=P(O)(OCC(O)CO)OC1C(O)C(O)C(O)C(O)C1O (stereo not drawn) [GroPIns, glycerophosphoinositol] | not at 50 μM | inhibited the effects of LPS on expression of all of the genes analysed | did not affect the phosphorylation levels
